The record followed here is patent US20240409880A1, “METHODS FOR INCREASING ALGAE PRODUCTIVITY USING HIGH SILICA CONCENTRATIONS” (Global Algae Technology, LLC, priority 2023, published 2024).

The test relates to Nitzschia inconspicua. Put plainly: Cultivation of Nitzschia inconspicua in an open raceway pond at high silica loading, lipid content of harvested slurry. Type of test: cell-based. The method, then: Nitzschia inconspicua was cultivated at pH 9.6 with a silica loading of 10-11 mM in an open raceway pond for 20 days. Silica was added to the culture at a concentration of 1-3 mM each day to maintain the 10-11 mM silica loading as the algae grew and the batch volume increased. The silica loading was reduced to below 5 mM by diluting the culture without adding silica. The third day after reducing the silica loading, the loading was 2 mM. The algae slurry was harvested on the third day and analyzed for lipid content. The lipid content was 47% of the ash-free dry weight of the biomass. This is a substantial increase in lipid content compared to the typical 5-10% lipid content when the algae is grown in standard media with silica concentrations below 500 μM.

With `O=[Si]=O` [silica], the typical lipid content (algae grown in standard media with silica concentrations below 500 μM) was 5-10%. Further, the lipid content (pH 9.6, silica loading 10-11 mM for 20 days, then reduced to below 5 mM, loading 2 mM at harvest on the third day) is on record as 47 % of the ash-free dry weight of the biomass.
